Test results taken from ChEMBL document CHEMBL1159211, “Antifungal evaluation of pseudolaric acid B, a major constituent of Pseudolarix kaempferi” (J Nat Prod, 1995).
Values after ≈ are worked out from the molar mass of the structure shown. Active and inactive are the calls of the source. No cut-off for these calls is given here.

How the values were obtained:
Candida albicans [1] = assay: Antimicrobial activity against Candida albicans at 1 mg/mL by agar-well diffusion assay; type: functional; details: Candida albicans; read-out: IZ
Cryptococcus neoformans = assay: Antimicrobial activity against Cryptococcus neoformans at 1 mg/mL by agar-well diffusion assay; type: functional
Staphylococcus aureus = assay: Antimicrobial activity against Staphylococcus aureus at 1 mg/mL by agar-well diffusion assay; type: functional, organism-based
[2] = system: Trichophyton mentagrophytes; assay: Antimicrobial activity against Trichophyton mentagrophytes at 1 mg/mL by agar-well diffusion assay; type: functional
[3] = system: Mycobacterium intracellulare; assay: Antimicrobial activity against Mycobacterium intracellular at 1 mg/mL by agar-well diffusion assay; type: functional; details: for zone of inhibition at 1000 µg/mL: read-out: IZ
Escherichia coli = assay: Antimicrobial activity against Escherichia coli at 1 mg/mL by agar-well diffusion assay; type: functional, organism-based
Pseudomonas aeruginosa = assay: Antimicrobial activity against Pseudomonas aeruginosa at 1 mg/mL by agar-well diffusion assay; type: functional, organism-based
Aspergillus fumigatus = assay: Antimicrobial activity against Aspergillus fumigatus at 1 mg/mL by agar-well diffusion assay; type: functional
Aspergillus flavus = assay: Antimicrobial activity against Aspergillus flavus at 1 mg/mL by agar-well diffusion assay; type: functional
Nannizzia gypsea = assay: Antimicrobial activity against Microsporum gypseum at 1 mg/mL by agar-well diffusion assay; type: functional
Bacillus subtilis = assay: Antimicrobial activity against Bacillus subtilis at 1 mg/mL by agar-well diffusion assay; type: functional, organism-based
Saccharomyces cerevisiae = assay: Antimicrobial activity against Saccharomyces cerevisiae at 1 mg/mL by agar-well diffusion assay; type: functional, organism-based
Candida albicans [4] = assay: Antifungal activity against Candida albicans B311 assessed decrease in number of viable cells at 1 to 10 ug/ml after 24 hrs by time-to kill curve assay; type: functional, organism-based
Candida albicans [5] = assay: Antifungal activity against Candida albicans B311 infected in CD1 mouse assessed as prolongation of survival time at 10 mg/kg, iv administered 1, 3 and 5 days postinfection; type: functional, organism-based; parameters: dose 10 mg/kg
Candida albicans [6] = assay: Antifungal activity against Candida albicans B311 infected in CD1 mouse assessed as prolongation of survival time at 40 mg/kg, ip administered 7 hrs postinfection and continued for 7 or 14 consecutive days; type: functional, organism-based; parameters: dose 40 mg/kg
Candida albicans [7] = assay: Antifungal activity against Candida albicans ATCC 10231 at 1 mg/mL by agar-well diffusion assay; type: functional; details: Candida albicans, ATCC 10231; read-out: IZ
Candida tropicalis [8] = assay: Antifungal activity against Candida tropicalis ATCC 20326 at 1 mg/mL by agar-well diffusion assay; type: functional; details: Candida tropicalis, ATCC 20326; read-out: IZ
Yarrowia deformans [9] = assay: Antifungal activity against Torulopsis petrophilum ATCC 20225 by twofold serial broth dilution method; type: functional
Candida parapsilosis [10] = assay: Antifungal activity against Candida parapsilosis ATCC 20224 at 1 mg/mL by agar-well diffusion assay; type: functional; details: Lodderomyces parapsilosis, ATCC 20224; read-out: IZ
Candida parapsilosis [11] = assay: Antifungal activity against Candida parapsilosis ATCC 20224 by twofold serial broth dilution method; type: functional; details: Lodderomyces parapsilosis
Candida albicans [12] = assay: Antifungal activity against Candida albicans ATCC 10231 by twofold serial broth dilution method; type: functional
Candida albicans [13] = assay: Antifungal activity against Candida stellatoidea SA-I by twofold serial broth dilution method; type: functional
Candida albicans [14] = assay: Antifungal activity against Candida albicans NIH B311 infected in mouse assessed as reduction in number of recovered colony-forming units assessed per mg of kidney at 1 mg/kg, ip administered 7 and 24 hrs after infection measured 16 hrs after final injection by tenfold serial dilution method relative to control; type: functional; parameters: scale not given: the % may be the effect or the level left; details: route intraperitoneal
Candida albicans [15] = assay: Antifungal activity against Candida albicans B311 at 1 mg/mL by agar-well diffusion assay; type: functional; details: Candida albicans, B311; read-out: IZ
Candida albicans [16] = assay: Antifungal activity against Candida stellatoidea SA-I at 1 mg/mL by agar-well diffusion assay; type: functional; details: Candida albicans; read-out: IZ
Torula [17] = assay: Antifungal activity against Torula cremoris NRRL 7495 at 1 mg/mL by agar-well diffusion assay; type: functional; details: Torula, NRRL 7495; read-out: IZ
Yarrowia deformans [18] = assay: Antifungal activity against Torulopsis petrophilum ATCC 20225 at 1 mg/mL by agar-well diffusion assay; type: functional; details: Yarrowia deformans, ATCC 20225; read-out: IZ
Candida tropicalis [19] = assay: Antifungal activity against Candida tropicalis ATCC 20326 by twofold serial broth dilution method; type: functional
Candida tropicalis [20] = assay: Antifungal activity against Candida tropicalis ATCC 20021 at 1 mg/mL by agar-well diffusion assay; type: functional; details: Candida tropicalis, ATCC 20021; read-out: IZ
Starmerella magnoliae = assay: Antifungal activity against Candida magnoliae ATCC 12573 at 1 mg/mL by agar-well diffusion assay; type: functional; details: ATCC 12573; read-out: IZ
Candida albicans [21] = assay: Antifungal activity against Candida albicans B311 by twofold serial broth dilution method; type: functional
Torula [22] = assay: Antifungal activity against Torula cremoris NRRL 7495 by twofold serial broth dilution method; type: functional
Candida tropicalis [23] = assay: Antifungal activity against Candida tropicalis LM 64 by twofold serial broth dilution method; type: functional
Candida tropicalis [24] = assay: Antifungal activity against Candida tropicalis ATCC 20021 by twofold serial broth dilution method; type: functional
Candida tropicalis [25] = assay: Antifungal activity against Candida tropicalis LM 64 at 1 mg/mL by agar-well diffusion assay; type: functional; details: Candida tropicalis; read-out: IZ

What does the source list for `COC(=O)C1=CC[C@@]23CC[C@@H]([C@@](C)(/C=C/C=C(\C)C(=O)OC)OC2=O)[C@@]3(OC(C)=O)CC1`?
zone of inhibition at 1000 µg/mL (Candida albicans [1]): < 1 mm; Activity (Cryptococcus neoformans): inactive; Activity (Staphylococcus aureus): inactive; Activity [2]: inactive; zone of inhibition at 1000 µg/mL [3]: 1 mm; Activity (Escherichia coli): inactive; Activity (Pseudomonas aeruginosa): inactive; Activity (Aspergillus fumigatus): inactive; Activity (Aspergillus flavus): inactive; Activity (Nannizzia gypsea): inactive; Activity (Bacillus subtilis): inactive; Activity (Saccharomyces cerevisiae): inactive

Which Activity (Cryptococcus neoformans) does the source give for `COC(=O)C1=CC[C@@]23CC[C@@H]([C@@](C)(/C=C/C=C(\C)C(=O)O)OC2=O)[C@@]3(OC(C)=O)CC1` here?
The Activity was “inactive”.

And the Activity (Staphylococcus aureus)?
The Activity was “inactive”.

And the Activity (Candida albicans [4])?
The Activity was “Active”.

What about the Activity [3] of the same compound?
The Activity was “inactive”.

And the Activity (Escherichia coli)?
Its Activity is “inactive”.

What about the Activity (Candida albicans [5]) of the same compound?
The Activity was “Active”.

And the Activity (Pseudomonas aeruginosa)?
The Activity was “inactive”.

And the Activity (Candida albicans [6])?
Its Activity is “inactive”.

What about the Activity (Aspergillus flavus) of the same compound?
Its Activity is “inactive”.

And the Activity (Bacillus subtilis)?
The Activity was “inactive”.

What about the Activity (Saccharomyces cerevisiae) of the same compound?
The Activity was “inactive”.

Which results are given for `C[C@@H]1[C@H](O)[C@@H](C)/C=C/C=C/C=C/C=C/C=C/C=C/C=C/[C@H](O[C@@H]2O[C@H](C)[C@@H](O)[C@H](N)[C@@H]2O)C[C@@H]2O[C@](O)(C[C@@H](O)C[C@@H](O)[C@H](O)CC[C@@H](O)C[C@@H](O)CC(=O)O[C@H]1C)C[C@H](O)[C@H]2C(=O)O` [AMPHOTERICIN B]?
zone of inhibition at 1000 µg/mL (Candida albicans [7]): 7 mm; zone of inhibition at 1000 µg/mL (Candida tropicalis [8]): 7 mm; MIC (Yarrowia deformans [9]): 0.2 µg/mL (≈ 0.216 µM); zone of inhibition at 1000 µg/mL (Candida parapsilosis [10]): 3 mm; MIC (Candida parapsilosis [11]): 1.56 µg/mL (≈ 1.69 µM); MIC (Candida albicans [12]): 3.12 µg/mL (≈ 3.38 µM); MIC (Candida albicans [13]): 3.12 µg/mL (≈ 3.38 µM); Activity (Candida albicans [14]): 99.82%; zone of inhibition at 1000 µg/mL (Candida albicans [15]): 7 mm; zone of inhibition at 1000 µg/mL (Candida albicans [16]): 7 mm; zone of inhibition at 1000 µg/mL (Torula [17]): 7 mm; zone of inhibition at 1000 µg/mL (Yarrowia deformans [18]): 7 mm; MIC (Candida tropicalis [19]): 1.56 µg/mL (≈ 1.69 µM); zone of inhibition at 1000 µg/mL (Candida tropicalis [20]): 7 mm; zone of inhibition at 1000 µg/mL (Starmerella magnoliae): 7 mm; MIC (Candida albicans [21]): 1.56 µg/mL (≈ 1.69 µM); MIC (Torula [22]): 3.12 µg/mL (≈ 3.38 µM); MIC (Candida tropicalis [23]): 1.56 µg/mL (≈ 1.69 µM); MIC (Candida tropicalis [24]): 3.12 µg/mL (≈ 3.38 µM); zone of inhibition at 1000 µg/mL (Candida tropicalis [25]): 7 mm

`C/C(=C\C=C\[C@@]1(C)OC(=O)[C@]23CC=C(C(=O)O)CC[C@]2(O)[C@H]1CC3)C(=O)O` [DEMETHOXYDEACETOXYPSEUDOLARIC ACID B] was tested. Which zone of inhibition at 1000 µg/mL (Candida albicans [1]) did it give?
Its zone of inhibition at 1000 µg/mL is less than 1 mm.

What about the Activity (Cryptococcus neoformans) of the same compound?
Its Activity is “inactive”.

And the Activity (Staphylococcus aureus)?
The Activity was “inactive”.

And the zone of inhibition at 1000 µg/mL ([2]; Trichophyton mentagrophytes, read-out: IZ)?
Its zone of inhibition at 1000 µg/mL is 3 mm.

What about the zone of inhibition at 1000 µg/mL [3] of the same compound?
The zone of inhibition at 1000 µg/mL was 1 mm.

What about the Activity (Escherichia coli) of the same compound?
The Activity was “inactive”.

What about the Activity (Pseudomonas aeruginosa) of the same compound?
The Activity was “inactive”.

What about the Activity (Aspergillus fumigatus) of the same compound?
Its Activity is “inactive”.

What about the Activity (Aspergillus flavus) of the same compound?
Its Activity is “inactive”.

What about the Activity (Nannizzia gypsea) of the same compound?
The Activity was “inactive”.

What about the Activity (Bacillus subtilis) of the same compound?
Its Activity is “inactive”.

And the Activity (Saccharomyces cerevisiae)?
The Activity was “inactive”.
